2 compounds from paper PMC3551756, “HIV-1 Fusion Is Blocked through Binding of GB Virus C E2D Peptides to the HIV-1 gp41 Disulfide Loop” (PLoS ONE, 2013) can be followed below.

In this test the test system is 6-helix bundle (N36/C34-biotin). Put plainly: Inhibition of 6-HB formation, ELISA. The test is classed as binding, HIV-1. As to conditions: mAb NC-1 capture, N36 0.25 µM, C34-biotin 0.25 µM, graded peptide, 30 min 37°C, triplicate. How it is done:
Briefly, 96-well polystyrene plates were coated with the 6-HB-specific monoclonal antibody, NC-1 IgG, (described by) (2 µg/ml in 0.1 M Tris, pH 8.8), and then blocked with 2% non-fat milk. N36 (0.25 µM), the tested peptides and C34 as control were added at graded concentrations into the wells. After incubation for 30 min at 37°C, C34-biotin (0.25 µM) was added, followed by incubation for 45 min at 37°C and washing with wash buffer (PBS containing 0.05% Tween-20) six times. Streptavidin-labeled horseradish peroxidase (Invitrogen, Grand Island, NY) and the substrate 3,3′,5,5′-tetramethylbenzidine (Sigma, St. Louis, MO) were added sequentially. Absorbance at 450 nm (OD450) was measured. The percent inhibition of 6-HB formation by the peptides was calculated as described before.
Figure 5 E2-derived peptides bind to the disulfide loop of gp41. (A) Illustration of gp41 variants (strains IIIB, MN) and peptides (N36, C34) used in ELISA as well as the binding epitopes of different monoclonal gp41 antibodies. Gp41 consists of the N-terminal fusion peptide (FP), the N- and C-heptad repeats (NHR, CHR) that are connected by the disulfide loop region (C-C loop), the membrane proximal external region (MPER), the α-helical transmembrane-spanning domain (TM), and the cytoplasmic tail (CP). […] Each sample was tested in triplicate. This experiment was repeated twice and similar results were obtained. […]

As to `CC(=O)N[C@@H](CC(C)C)C(=O)N[C@@H](CS)C(=O)N[C@@H](CC(=O)O)C(=O)N[C@@H](CS)C(=O)N1CCC[C@H]1C(=O)N[C@@H](CC(N)=O)C(=O)NCC(=O)N1CCC[C@H]1C(=O)N[C@@H](Cc1c[nH]c2ccccc12)C(=O)N[C@H](C(=O)N[C@@H](Cc1c[nH]c2ccccc12)C(=O)N[C@H](C(=O)N1CCC[C@H]1C(=O)N[C@@H](C)C(=O)N[C@@H](Cc1ccccc1)C(=O)N[C@@H](CS)C(=O)N[C@@H](CCC(N)=O)C(=O)N[C@@H](C)C(=O)N[C@H](C(=O)NCC(=O)O)C(C)C)C(C)C)C(C)C` [P6-2], the “inhibition of 6-HB formation” value is “Neither P4-7 nor P6-2 was able to interfere with the formation of 6-HB”.

Consider “Ac-WDRGNVTLLCDCPNGPWVWV [P4-7, 20 mer peptide presenting amino acids 37 to 56 of the GBV-C E2 protein]”, for which the “inhibition of 6-HB formation” value was “Neither P4-7 nor P6-2 was able to interfere with the formation of 6-HB”.
